The target of test [1] is T1, BRD4 BD1 (Homo sapiens, UniProt O60885).
T1 construct: made in house
Description: AlphaScreen binding assay, BRD4 Bromodomain 1. In outline:
(§1)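 An AlphaScreen competition format was used with His-BRD4 BD1 or BD2 and biotin-H4 K5/8/12/16-acetyl peptide, each at matched final levels of 50 nM (BD1) or 100 nM (BD2). Incubation in HEPES/NaCl buffer with 0.1% BSA and 0.01% Triton X-100 ran ≥1 h before IC50 determination.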

Test [2] addresses T2, BRD4 BD2 (Homo sapiens, UniProt O60885).
T2 construct: made in house
Description: AlphaScreen binding assay, BRD4 Bromodomain 2. An outline of the steps:
as §1
(In Alpha technology, singlet oxygen from a donor bead excites a nearby acceptor bead.)

The test system of test [3] is MV4-11 cells. In words: Oncology cell growth assay (3-day proliferation, CellTiter-Glo). Type of test: cell-based. The following applies: Homo sapiens, AML cell line MV4-11, 72 hours, compounds grouped by IC50 range, read-out: MV4-11 IC50 (inhibition of proliferation, gIC50). An outline of the steps: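 A 3-day proliferation test used MV4-11 cells seeded at 3000 per well with eight compound concentrations (10 μM top, 3-fold dilution) at 37° C in 5% CO2. CellTiter-Glo luminescence defined viable cell signal. A four-parameter logistic curve against DMSO and background wells gave the gIC50.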
(Cellular ATP, detected with luciferase, serves as a proxy for viable cell number.)

Like-named read-outs stand apart in the source and are kept apart here. Some results are limits rather than exact numbers.

In the case of `CC(=O)N1c2ccc(-c3cnn(C(C)(C)CO)c3)cc2N(C(=O)Oc2ccc(F)cc2)C[C@@H]1C` [Example I-1020], the IC50 in test [1] is 100 to 1000 nM; in test [2] it was less than 50 nM; in test [3] (MV4-11, 72 h), 100 to 500 nM.
Consider `CC(=O)N1c2ccc(-c3cnn(C4CCCS(=O)(=O)C4)c3)cc2N(C(=O)OC2CCOCC2)C[C@@H]1C` (stereo partly drawn) [Example I-161, oxan-4-yl (3S)-4-acetyl-7-[1-(1,1-dioxo-1λ^6-thian-3-yl)-1H-pyrazol-4-yl]-3-methyl-1,2,3,4-tetrahydroquinoxaline-1-carboxylate], for which the IC50 lay within 100 to 1000 nM in test [1]; 50 to 500 nM in test [2]; 100 to 500 nM in test [3] (MV4-11, 72 h).
On the same counts, the results for `CC(=O)N1c2ccc(-c3ccc(NS(C)(=O)=O)c(F)c3)cc2N(C(=O)OC(C)C)C[C@@H]1C` [Example I-1183] are 100 to 1000 nM, less than 50 nM and 100 to 500 nM.
On the same counts, the results for `CC(=O)N1c2ccc(-c3ccc(N4CCN(C)CC4)cc3)cc2N(C(=O)c2ccco2)C[C@@H]1C` [Example I-874] are 100 to 1000 nM, less than 50 nM and 100 to 500 nM.
On to `CC(=O)N1c2ccc(-c3ccc(C(=O)N4CCNCC4)cc3)cc2N(C(=O)Oc2ccccc2)C[C@@H]1C` [Example I-99, phenyl (S)-4-acetyl-3-methyl-7-(4-(piperazine-1-carbonyl)phenyl)-3,4-dihydroquinoxaline-1(2H)-carboxylate], for which the IC50 in test [1] is less than 100 nM; in test [2], less than 50 nM; in test [3], less than 100 nM.
Regarding `CC(=O)N1c2ccc(-c3cnn(C4CNC4)c3)cc2N(C(=O)C2CC2)C[C@@H]1C` [Example I-360], the IC50 in test [1] was less than 100 nM; in test [2], less than 50 nM; in test [3] (MV4-11, 72 h), 100 to 500 nM.
On the same counts, the results for `CC(=O)N1c2ccc(-c3ccc(S(C)(=O)=O)cc3)cc2N(C(=O)OCC(C)C)C[C@@H]1C` [Example I-250] are 100 to 1000 nM, 50 to 500 nM and 100 to 500 nM.
Taken in the same sequence, the figures for `CC(C)OC(=O)N1C[C@H](C)N(C(=O)C2CC2)c2ccc(-c3cnn(CCN4CCOCC4)c3)cc21` [Example I-312] were 100 to 1000 nM, 50 to 500 nM and 100 to 500 nM.
As to `CC(=O)N1c2ccc(-c3ccc(S(=O)(=O)CCO)cc3)cc2N(C(=O)C2CC2)C[C@@H]1C` [Example I-449], the IC50 in test [1] was 100 to 1000 nM; in test [2] it was 50 to 500 nM; in test [3] (MV4-11, 72 h), more than 500 nM.
In the case of `CC(=O)N1c2ccc(-c3ccc(S(=O)(=O)NC4CC4)cc3)cc2N(C(=O)c2ccco2)C[C@@H]1C` [Example I-268], the IC50 in test [1] is 100 to 1000 nM; in test [2] it was less than 50 nM; in test [3] (MV4-11, 72 h) it was less than 100 nM.
`CC(=O)N1c2ccc(-c3cnn(C4CC4)c3)cc2N(C(=O)Oc2cncc(Cl)c2)C[C@@H]1C` [Example I-1187]: the IC50 was 100 to 1000 nM in test [1]; less than 50 nM in test [2]; more than 500 nM in test [3] (MV4-11, 72 h).
On the same counts, the results for `CC(C)OC(=O)N1C[C@H](C)N(C(=O)C2CC2)c2ccc(-c3cnn(CCC(N)=O)c3)cc21` [Example I-621] are 100 to 1000 nM, 50 to 500 nM and more than 500 nM.
On the same counts, the results for `CC(=O)N1c2ccc(-c3cnn(CCO)c3)cc2N(c2nn(C)c3cccc(F)c23)C[C@@H]1C` [Example I-190, 1-[(2S)-4-(4-fluoro-1-methyl-1H-indazol-3-yl)-6-[1-(2-hydroxyethyl)-1H-pyrazol-4-yl]-2-methyl-1,2,3,4-tetrahydroquinoxalin-1-yl]ethan-1-one] are 100 to 1000 nM, less than 50 nM and 100 to 500 nM.
On to `CC(=O)N1c2ccc(-c3cnn(C4CC4)c3)cc2N(C(=O)OCC2CC2)C[C@@H]1C` [Example I-994], for which the IC50 in test [1] lay within 100 to 1000 nM; in test [2], 50 to 500 nM; in test [3] (MV4-11, 72 h), 100 to 500 nM.
Taken in the same sequence, the figures for `CC(=O)N1c2ccc(-c3ccc(OCCN(C)C)cc3)cc2N(C(=O)c2ccco2)C[C@@H]1C` [Example I-276] were 1000 to 10000 nM, less than 50 nM and less than 100 nM.
On the same counts, the results for `CC(=O)N1c2ccc(-c3cnn(C)c3)cc2N(C(=O)c2ccco2)C[C@@H]1C` [Example I-822] are 100 to 1000 nM, less than 50 nM and 100 to 500 nM.
On the same counts, the results for `CC(=O)N1c2ccc(-c3ccc4c(c3)CS(=O)(=O)N4)cc2N(C(=O)C2CC2)C[C@@H]1C` [Example I-1178] are 100 to 1000 nM, 50 to 500 nM and more than 500 nM.
With `COc1ccc(Cl)cc1OC(=O)N1C[C@H](C)N(C(C)=O)c2ccc(-c3cnn(C4CC4)c3)cc21` [Example I-530], the IC50 in test [1] was 100 to 1000 nM; in test [2] it was 50 to 500 nM; in test [3] (MV4-11, 72 h), less than 100 nM.
On to `COC(=O)N1c2ccc(-c3cnn(C4CCOCC4)c3)cc2N(C(=O)OC(C)C)C[C@@H]1C` [Example I-322], for which the IC50 was 100 to 1000 nM in test [1]; 50 to 500 nM in test [2]; 100 to 500 nM in test [3] (MV4-11, 72 h).
Regarding `CC(=O)N1c2ccc(-c3cnn(C4CC4)c3)cc2N(C(=O)Oc2ccc3cnccc3c2)C[C@@H]1C` [Example I-1192], the IC50 is 100 to 1000 nM in test [1]; less than 50 nM in test [2]; less than 100 nM in test [3] (MV4-11, 72 h).
For the compound `CC(=O)N1c2ccc(-c3ccc(S(C)(=O)=O)cc3)cc2N(c2nc3ccccc3o2)C[C@@H]1C` [Example I-46, (S)-1-(4-(benzo[d]oxazol-2-yl)-2-methyl-6-(4-(methylsulfonyl)phenyl)-3,4-dihydroquinoxalin-1(2H)-yl)ethanone], the IC50 in test [1] was 100 to 1000 nM; in test [2], more than 500 nM; in test [3] (MV4-11, 72 h), 100 to 500 nM.
Taken in the same sequence, the figures for `CC(=O)N1c2ccc(-c3cnn(C4CS(=O)(=O)C4)c3)cc2N(C(=O)C2CC2)C[C@@H]1C` [Example I-1305] were 1000 to 10000 nM, less than 50 nM and more than 500 nM.
Taken in the same sequence, the figures for `CC(=O)N1c2ccc(-c3ccc(NS(C)(=O)=O)c(C)c3)cc2N(C(=O)C2CC2)C[C@@H]1C` [Example I-1171] were 100 to 1000 nM, 50 to 500 nM and 100 to 500 nM.
For `CC(=O)N1c2ccc(-c3ccc(S(N)(=O)=O)cc3)cc2N(C(=O)C2CC2)C[C@@H]1C` [Example I-1066], the IC50 in test [1] was 1000 to 10000 nM; in test [2] it was 50 to 500 nM; in test [3] (MV4-11, 72 h) it was more than 500 nM.

For the origin of these results see patent publication US10703764B2, “Benzopiperazine compositions as BET bromodomain inhibitors” (FORMA Therapeutics, Inc., priority 2013, dated 2020).
